Molecular target: Babesia microti lactate dehydrogenase (BmLDH) (Babesia microti, UniProt I7J7V6)
Experiment: NADH formation at […] nm, […] NAD+ and […] lactate, non-linear regression
Format: biochemical

Chain of Babesia microti lactate dehydrogenase (BmLDH) (I7J7V6 1-332): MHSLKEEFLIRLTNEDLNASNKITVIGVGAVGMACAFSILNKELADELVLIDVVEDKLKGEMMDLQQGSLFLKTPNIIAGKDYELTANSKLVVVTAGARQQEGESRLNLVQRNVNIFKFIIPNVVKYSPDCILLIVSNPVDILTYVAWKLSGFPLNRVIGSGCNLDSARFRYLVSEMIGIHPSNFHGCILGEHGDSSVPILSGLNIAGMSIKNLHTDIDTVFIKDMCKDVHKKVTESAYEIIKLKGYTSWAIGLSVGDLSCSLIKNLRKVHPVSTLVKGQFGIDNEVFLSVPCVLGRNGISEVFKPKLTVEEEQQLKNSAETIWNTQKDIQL

With Cc1cc2c(C(C)C)c(O)c(O)c(C=O)c2c(O)c1-c1c(C)cc2c(C(C)C)c(O)c(O)c(C=O)c2c1O [gossypol] the IC50 was 345 ± 1.11 nM.
